In patent US10918641B2, “Use of MTAP inhibitors for the treatment of lung disease” (The University of North Carolina at Chapel Hill, priority 2015, dated 2021):
≈ marks a conversion by molar mass, not a printed value. Entries after “also recorded” stand apart in the source; their conditions may differ.

What was measured:
MTA metabolism at MTAP [1] = tested on: MTA metabolism at MTAP
human MTAP = molecular target: T1, human MTAP (Homo sapiens, UniProt Q13126); assay: Inhibition of human MTAP by transition state analogue (Ki*); assay type: biochemical
T1 sequence (Q13126 1-283): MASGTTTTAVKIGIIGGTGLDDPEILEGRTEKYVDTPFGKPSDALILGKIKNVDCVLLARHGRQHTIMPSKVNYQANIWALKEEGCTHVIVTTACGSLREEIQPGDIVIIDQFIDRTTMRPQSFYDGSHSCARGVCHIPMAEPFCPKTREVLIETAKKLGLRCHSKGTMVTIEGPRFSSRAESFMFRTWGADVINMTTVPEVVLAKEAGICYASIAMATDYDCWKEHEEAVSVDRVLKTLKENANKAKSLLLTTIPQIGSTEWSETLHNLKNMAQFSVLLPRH

physchem = conditions: PBS, aqueous buffer
[2] = Metabolic stability in human hepatocytes and microsomes
MTA metabolism at MTAP [3] = tested on: MTA metabolism at MTAP; remark: listed apart in the source
Procedure: A) Serum MTA concentrations after single oral dose of various concentrations of MTDIA (range 0.6-150 mg/kg, numbers on graph represent dose in mg/kg MTDIA) as well as a 10 mg/kg dose IV.

[4] = MTDIA plasma pharmacokinetics after oral or i.p. dose in CD-1 mice; conditions: in words
Scnn1b-Tg mice [5] = assay: Single 15 mg/kg oral gavage dose in WT and Scnn1b-Tg mice
MTA metabolism at MTAP [6] = assay: MTDIA in drinking water of WT mice, serum and BALF MTA; assay type: in vivo
Procedure: The effect of a range of MTDIA concentrations in drinking water on serum and BALF MTA concentrations in WT mice is explored using protocols similar to those described above, except that MTDIA is delivered in drinking water rather than oral gavage. In preliminary experiments, we calculated that 75 μg/mL of MTDIA in drinking water would deliver a dose of 15 mg/kg per day that we utilized in our single dose experiments (based on estimates of a 25 g mouse drinking […] water per day), and we examined WT mice treated with this dose as well as half of this dose (37.5 μg/mL) relative to mice drinking untreated water. […] Once this dose is established, this dose is tested over three days in our Scnn1b-Tg and CF/Scnn1b-Tg mice to ensure that we observe similar effects in these models.

[7] = Stability of MTDIA in drinking water (MS method); assay type: physicochemical; conditions: three days, room temperature
Scnn1b-Tg mice [8] = assay: 15 mg/kg oral gavage once daily for three days in Scnn1b-Tg mice; assay type: in vivo, mouse
Procedure: Therefore, we repeated the above study in Scnn1b-Tg mice using 15 mg/kg MTDIA by oral gavage once daily for three days. With the longer treatment, we observed increases in serum (FIG. 8A) and BALF (FIG. 8B) MTA concentrations in treated mice relative to vehicle treated animals (n=13 and 11, respectively), similar to the changes seen with the single dose experiments.
Similar differences were observed when BALF inflammatory cells were analyzed as cell differentials rather than cell counts. These findings provide compelling evidence that MTDIA can act as an anti-inflammatory drug in a chronic airways disease model.

MTAP = MTAP (Mus musculus, UniProt Q9CQ65)
[9] = Toxicity in in vitro (2D and 3D culture) and in vivo studies to date; conditions: all in vitro (2D and 3D culture) and in vivo studies to date
[10] = tested on: protein receptor and kinase panels; assay: Protein receptor and kinase panels (off-target effects); assay type: binding
[11] = Acute and seven-day repeat-dose toxicity by gavage in CD-1 mice
Procedure: In CD-1 mice, a single dose of MTDIA was administered by gavage to establish acute toxicity (300, 600 and 1000 mg/kg), or once daily for seven consecutive days (0, 600 and 1000 mg/kg/day) to determine repeat-dose toxicity. Mice were monitored for abnormalities, survival rates, histopathological changes (heart, lung, liver, kidney, spleen, small intestine and stomach were evaluated histopathologically by a board certified pathologist), clinical chemistry and complete blood count (CBC) analysis.

[12] = 15 mg/kg once daily, three days

Chain of MTAP (Q9CQ65 whole entry): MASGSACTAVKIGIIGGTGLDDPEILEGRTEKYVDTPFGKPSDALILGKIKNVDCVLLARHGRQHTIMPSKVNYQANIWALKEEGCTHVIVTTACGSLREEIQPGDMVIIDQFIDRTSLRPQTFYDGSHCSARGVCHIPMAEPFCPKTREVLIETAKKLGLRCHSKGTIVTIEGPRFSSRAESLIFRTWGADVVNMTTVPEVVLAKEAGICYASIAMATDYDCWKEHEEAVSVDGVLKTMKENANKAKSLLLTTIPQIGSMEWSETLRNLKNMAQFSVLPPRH

SMILES: CSC[C@H]1CN(Cc2c[nH]c3c(N)ncnc23)C[C@@H]1O [MTDIA, (3R,4S)-1-[(9-deazaadenin-9-yl)methyl]-3-hydroxy-4-(methylthiomethyl)pyrrolidine]
- Urinary MTA (MTA metabolism at MTAP [1]; 15 mg/kg, mice): approximately 30 μM
- Increase of plasma MTA levels (MTA metabolism at MTAP [1]; 15 mg/kg, mice, after 30 min): > 100 fold
- Decrease in polyamine concentrations (MTA metabolism at MTAP [1]; an oral or i.p. dose): ~2 fold
- MTA accumulation in plasma over baseline levels (MTA metabolism at MTAP [1]; an oral or i.p. dose): > 100 fold
- Ki (human MTAP): 0.086 nM
- Affinity for MTAP (human MTAP; in words): picomolar affinity
- solubility (physchem): 156 mM (≈ 45.8 mg/mL)
- Time metabolically stable ([2]; in vitro, human hepatocytes and microsomes): over 4 hr
- Metabolic stability in microsomes and hepatocytes ([2]; in words): metabolically stable
- Oral dose yielding maximal response in serum MTA concentrations (MTA metabolism at MTAP [3]; previous experiments, as stated in Example 7): 15 mg/kg
- Oral dose with maximum effect on serum MTA concentrations (MTA metabolism at MTAP [3]; single oral dose range 0.6-150 mg/kg (FIG. 7A legend)): 30 mg/kg
- Oral availability [4]: orally available
- BALF inflammatory markers (Scnn1b-Tg mice [5]; after a single dose): did not observe any changes
- Serum MTA concentrations (Scnn1b-Tg mice [5]; single 15 mg/kg oral gavage, 24 hours, WT and Scnn1b-Tg mice, 15 mg/kg): increase; also recorded: increases serum MTA
- Serum MTA concentrations vs. control (MTA metabolism at MTAP [6]; 37.5 μg/mL in drinking water): more than two orders of magnitude higher than control; also recorded: orders of magnitude increases
- Serum MTA concentrations vs. control (MTA metabolism at MTAP [6]; 75 μg/mL in drinking water): more than two orders of magnitude higher than control; also recorded: orders of magnitude increases
- BALF MTA vs. control (MTA metabolism at MTAP [6]; 37.5 or 75 μg/mL in drinking water): less dramatic increases; also recorded: increased BALF MTA concentrations
- Stability in drinking water [7]: stable
- BALF MTA concentrations vs. vehicle (Scnn1b-Tg mice [8]; [12]): increases
- Free concentrations of spermine and spermidine in serum or BALF (Scnn1b-Tg mice [8]; [12]): did not observe large changes; also recorded: minimal changes
- Serum MTA concentrations vs. vehicle (Scnn1b-Tg mice [8]; [12]): increases; also recorded: increased serum MTA concentrations
- Bronchus-associated lymphoid tissue (BALT), lung histology (Scnn1b-Tg mice [8]; three days of MTDIA treatment): meaningfully reduced; also recorded: greatly reduced
- Enlarged activated macrophage phenotype (BALF cytospins) (Scnn1b-Tg mice [8]; three days of MTDIA treatment): appears to be reduced; also recorded: resolve to a more WT appearance
- BALF macrophage cell counts (Scnn1b-Tg mice [8]; three days oral MTDIA): corresponding increase
- BALF eosinophil cell count (Scnn1b-Tg mice [8]; three days oral MTDIA, vehicle 14.2+13.5, p<0.001): 2.2+3.2 ×10^3 cells/ml
- BALF neutrophil cell count (Scnn1b-Tg mice [8]; three days oral MTDIA, vehicle 32.0+16.9, p<0.001): 11.5+8.2 ×10^3 cells/ml
- Duration of inhibition of MTAP activity in vivo (MTAP; an oral or i.p. dose): > 24 h
- Time for MTAP catalytic activity in mouse serum to return to normal (MTAP; single oral dose 15 mg/kg): ≤ 36 h
- Time for which catalytic activity of MTAP in mouse serum is completely inhibited (MTAP; single oral dose 15 mg/kg): 24 h
- Toxicity observed [9]: No significant toxicity
- Off-target effects in protein receptor and kinase panels [10]: minimal off-target effects
- LOAEL (Lowest-Observed-Adverse-Effect level) ([11]; CD-1 mice, gavage): 600 mg/kg/day
- Histopathological findings ([11]; mouse, in vivo): No histopathological findings were detected
